In article PMC12405493, “Selective ubiquitination of drug-like small molecules by the ubiquitin ligase HUWE1” (Nature Communications, 2025):

Legend:
[1] = tested on: HECT domains of E6AP (UBE3A), HACE1, NEDD4, and UBE3C; test: Analytical SEC of compound ubiquitination by other HECT domains; assay type: biochemical, human
[2] = target: T1, HUWE1^HECT (Homo sapiens, UniProt Q7Z6Z7); test: HUWE1^HECT multi-turnover ubiquitination reactions (fluorescent Ub tracer, SDS-PAGE); assay type: biochemical; conditions: E2 UBE2L3, varying concentrations
T1 construct: the isolated HECT domain of HUWE1 (HUWE1^HECT); made in house
T1 sequence (Q7Z6Z7 4038-4374 limits assumed): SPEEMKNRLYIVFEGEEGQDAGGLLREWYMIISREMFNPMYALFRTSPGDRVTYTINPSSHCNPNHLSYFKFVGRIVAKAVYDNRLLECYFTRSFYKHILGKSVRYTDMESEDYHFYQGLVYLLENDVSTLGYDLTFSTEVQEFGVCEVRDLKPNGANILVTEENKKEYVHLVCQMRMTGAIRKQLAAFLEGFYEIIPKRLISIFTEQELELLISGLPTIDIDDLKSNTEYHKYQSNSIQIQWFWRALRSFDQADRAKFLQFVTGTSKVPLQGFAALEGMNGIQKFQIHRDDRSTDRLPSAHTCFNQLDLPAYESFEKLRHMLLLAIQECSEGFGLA
Procedure: (§1) HUWE1^HECT multi-turnover ubiquitination reactions were performed for 30 minutes (unless stated otherwise) with 200 nM UBA1, 5 μM UBE2L3 or UBE2D3 (as specified), 1 μM HUWE1^HECT and 30 μM Ub in 25 mM HEPES (pH 7.5), 100 mM NaCl, 3 mM MgCl2, and 0.5 mM TCEP. HUWE1^FL multi-turnover ubiquitination reactions included 50 nM UBA1, 2.5 μM UBE2L3, 0.05 μM HUWE1^FL, 0.5 μM MCL1 (or 0.5 μM H2B or 1 μM FOXP3) and 20 μM Ub in 20 mM HEPES (pH 7.5), 100 mM NaCl, 3 mM MgCl2, and 0.5 mM TCEP. All multi-turnover reactions were started by the addition of 1 mM ATP, incubated at 30 °C, quenched with SDS-loading dye. If not stated otherwise, HUWE1^FLautoubiquitination reactions were incubated for 20 minutes. Substrate ubiquitination reactions with MCL1 or H2B were incubated for 10 and 20 min, respectively; those with FOXP3 for 30 min. Those reactions that were monitored by fluorescence contained a fluorescent Ub tracer (IRDye 800CW maleimide; LI-COR)[55] and were monitored using an Odyssey CLx scanner (LI-COR), followed by Coomassie staining. In the fluorescence images, only those marker bands are labeled (in kDa) that are visible by fluorescence; all marker bands are labeled in the Coomassie-stained images. Statistical analyses were performed with Prism 9 v.9.3.1 (GraphPad).

[3] = target: T2, HUWE1^HECT (Homo sapiens, UniProt Q7Z6Z7); test: Analytical SEC / intact protein MS of HUWE1^HECT-driven compound ubiquitination; assay type: biochemical; conditions: for Compound ubiquitination by HUWE1^HECT (SEC, intact protein MS): + ATP, WT Ub; for Inhibitor ubiquitination activity of HUWE1^HECT compared with other HECT domains: SEC, monoubiquitinated compound, HUWE1^HECT signal normalized to 1
T2 construct: the isolated HECT domain of HUWE1 (HUWE1^HECT); made in house
T2 sequence (Q7Z6Z7 3993-4374): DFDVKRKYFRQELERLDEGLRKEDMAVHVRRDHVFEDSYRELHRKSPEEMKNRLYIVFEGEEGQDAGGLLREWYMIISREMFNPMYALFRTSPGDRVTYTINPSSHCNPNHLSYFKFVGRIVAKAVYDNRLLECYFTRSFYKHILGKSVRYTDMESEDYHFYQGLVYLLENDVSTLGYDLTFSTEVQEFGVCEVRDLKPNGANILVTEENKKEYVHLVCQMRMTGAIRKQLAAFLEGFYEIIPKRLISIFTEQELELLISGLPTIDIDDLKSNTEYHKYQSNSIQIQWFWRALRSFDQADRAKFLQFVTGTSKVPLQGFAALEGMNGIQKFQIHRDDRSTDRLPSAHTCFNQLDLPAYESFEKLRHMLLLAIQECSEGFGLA
Procedure: HUWE1^HECT multi-turnover ubiquitination reactions were performed with 500 nM UBA1, 5 μM UBE2L3, 5 μM HUWE1^HECT and 100 μM Ub in 20 mM HEPES (pH 7.5), 100 mM NaCl and 0.5 mM TCEP in the presence of 1 mM ATP and 3 mM MgCl2. After 15 min incubation at 30 °C, the mixture was injected into a Superdex 75 Increase 3.2/300 column (Cytiva), equilibrated in 25 mM HEPES (pH 7.5), 100 mM NaCl, and 0.5 mM TCEP at 4 °C. Chromatograms were analyzed and peaks integrated with Unicorn v.7.9.02440 (Cytiva). Data were plotted with Prism v.9.3.1 (GraphPad).
Intact protein LC/MS: protein molecular weights (MWs) were determined by LC/MS on a nanoflow chromatography system (Dionex U3000 nanoRSLC), hyphenated to a hybrid quadrupole/orbitrap mass spectrometer (Q Exactive HF) with a NanoFlex ion source and controlled by Xcalibur v.2.4 (all Thermo Fisher Scientific). Proteins were dissolved in 2% (v/v) acetonitrile (ACN), 0.1% (v/v) formic acid (FA) to a concentration of 100 fmol μL^−1. For each analysis, 500 fmol were enriched on a pre-column (0.15 ×20 mm, Reprosil-Pur120 C18-AQ 5 μm; Dr. Maisch GmbH) and separated on an analytical RP-C18 column (0.075 mm×200 mm, Reprosil-Pur 120 C18-AQ; 1.9 μm, Dr. Maisch GmbH), using a 23-min linear gradient of 10–80% (v/v) ACN/0.1% (v/v) FA at 300 nl min^−1. MS data were acquired in full MS mode across the 500–1800 m/z-range at a resolution setting of 120,000 FWHM, an AGC target of 1*10e6 and a maximum fill time of 200 ms. Charge state deconvolution and MW representation were performed in Freestyle v.1.9 (Thermo Fisher Scientific), using default settings for high-resolution data.

[4] = target: T3, UBA1 (E1) / UBE2L3 (E2) (Homo sapiens, UniProt P22314+P68036); test: E1-driven Ub transfer to UBE2L3 (E3-free reaction); assay type: biochemical; conditions: Supplementary Fig. 1f, g
T3 construct: made in house
T3 sequence (P22314 whole entry): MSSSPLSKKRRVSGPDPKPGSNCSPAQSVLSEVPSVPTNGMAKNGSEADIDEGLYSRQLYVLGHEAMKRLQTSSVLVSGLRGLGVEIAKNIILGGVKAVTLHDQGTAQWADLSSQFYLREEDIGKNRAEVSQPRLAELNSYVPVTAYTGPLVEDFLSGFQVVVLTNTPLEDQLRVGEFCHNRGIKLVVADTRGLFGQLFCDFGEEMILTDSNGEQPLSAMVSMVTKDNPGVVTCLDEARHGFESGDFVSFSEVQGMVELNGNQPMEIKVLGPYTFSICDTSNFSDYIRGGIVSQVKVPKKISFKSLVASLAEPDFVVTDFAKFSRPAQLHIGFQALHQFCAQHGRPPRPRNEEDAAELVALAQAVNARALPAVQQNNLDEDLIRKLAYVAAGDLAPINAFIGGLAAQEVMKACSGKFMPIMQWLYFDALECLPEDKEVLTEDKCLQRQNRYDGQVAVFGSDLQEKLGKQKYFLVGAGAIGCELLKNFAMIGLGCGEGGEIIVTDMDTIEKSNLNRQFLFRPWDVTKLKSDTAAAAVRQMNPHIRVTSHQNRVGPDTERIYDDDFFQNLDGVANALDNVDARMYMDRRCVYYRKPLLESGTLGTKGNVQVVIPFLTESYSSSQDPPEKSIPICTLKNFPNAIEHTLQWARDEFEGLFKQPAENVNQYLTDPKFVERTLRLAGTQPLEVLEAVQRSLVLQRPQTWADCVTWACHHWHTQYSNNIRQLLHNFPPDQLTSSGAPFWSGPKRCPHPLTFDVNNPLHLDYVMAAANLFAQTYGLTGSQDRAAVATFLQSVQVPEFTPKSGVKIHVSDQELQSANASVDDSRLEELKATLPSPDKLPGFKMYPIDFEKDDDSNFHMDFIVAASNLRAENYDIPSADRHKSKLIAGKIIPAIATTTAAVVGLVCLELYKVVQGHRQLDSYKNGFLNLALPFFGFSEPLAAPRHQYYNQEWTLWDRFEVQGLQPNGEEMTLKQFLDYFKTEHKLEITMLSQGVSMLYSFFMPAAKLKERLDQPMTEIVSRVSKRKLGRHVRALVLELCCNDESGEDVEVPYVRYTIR
T3 sequence (P68036 whole entry): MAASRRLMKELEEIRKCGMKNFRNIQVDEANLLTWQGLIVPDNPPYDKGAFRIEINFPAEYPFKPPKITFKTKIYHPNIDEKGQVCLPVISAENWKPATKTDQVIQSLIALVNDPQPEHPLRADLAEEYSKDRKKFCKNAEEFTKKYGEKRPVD
Procedure: E3-free multi-turnover ubiquitination reactions to monitor E1 and E2 activities contained 1 μM UBA1, 5 μM UBE2L3, 100 μM Ub, 2 mM ATP and 10 mM MgCl2 in 25 mM HEPES (pH 7.4), and 0.2 mM TCEP. Reactions were incubated at 30 °C for 10 min (or otherwise, as specified) and quenched with 50 mM EDTA, followed by the addition of SDS-loading dye. Single-turnover E2~Ub discharge assays were performed similarly to previous studies. In short, 1 μM UBA1, 5 μM UBE2L3, and 100 μM Ub were pre-incubated with 2 mM ATP and 10 mM MgCl2 in 25 mM HEPES (pH 7.4) at 30 °C for 30 min, diluted 4-fold, and quenched with 50 mM EDTA. Thereafter, 1.2 μM of the UBE2L3~Ub product was incubated with 5 μM HUWE1^HECT at 30 °C for 1 min.

[5] = target: T4, HUWE1^FL (substrate MCL1) (Homo sapiens, UniProt Q7Z6Z7); test: HUWE1^FL-driven MCL1 ubiquitination reactions; assay type: biochemical; conditions: varying concentrations
T4 construct: made in house; host or cells: HEK293T (transient transfection, anti-Flag purification, SEC)
Procedure: as §1

| Compound | Compound ubiquitination by other HECT domains [1] | Inhibition of HUWE1^HECT-driven ubiquitination [2] | Compound ubiquitination by HUWE1^HECT (SEC, intact protein MS) ([3]; 20 μM compound) | Inhibitor ubiquitination activity of HUWE1^HECT compared with other HECT domains [3] | Ub transfer from the E1 to the E2 [4] | Inhibition of HUWE1^FL-driven MCL1 ubiquitination [5] | Compound ubiquitination by HUWE1^HECT (SEC) ([3]; 20 μM compound, UbΔGG (residues 1–74) instead of WT Ub) |
| --- | --- | --- | --- | --- | --- | --- | --- |
| Cc1c(C(=O)Nc2ccc(CN)cc2)ncnc1N1CCC(C#N)(c2ccccc2)CC1 [BI8622] | certain compound-directed activities were detected for all tested HECT domains | inhibit ubiquitination dose-dependently in the low-micromolar concentration range | assigned to the respective monoubiquitinated compound by intact protein MS | substantially higher activity for HUWE1^HECT than for the other HECT domains | nor do they perturb the preceding Ub transfer from the E1 to the E2 | inhibit the protein ubiquitination activity of the ligase in a dose-dependent manner | – |
| NCc1cccc(CNc2ncnc3c(N4CCN(Cc5ccccc5)CC4)ncnc23)c1 [BI8626] | certain compound-directed activities were detected for all tested HECT domains | inhibit ubiquitination dose-dependently in the low-micromolar concentration range | assigned to the respective monoubiquitinated compound by intact protein MS | substantially higher activity for HUWE1^HECT than for the other HECT domains | nor do they perturb the preceding Ub transfer from the E1 to the E2 | inhibit the protein ubiquitination activity of the ligase in a dose-dependent manner | No compound ubiquitination occurred |
